The results in this text go back to article PMC7481290, “Halogenation as a tool to tune antimicrobial activity of peptoids” (Scientific Reports, 2020).

The subject of one assay is S. aureus ATCC 29213. It counts as cell-based, Staphylococcus aureus. The following applies: ATCC 29213, 18 h. The protocol:
(§1) Bacterial growth inhibition was determined by using broth microdilution according to the Clinical Laboratory Standards Institute[43]. The antibacterial activity of peptoids was tested against S. aureus ATCC 25923, ATCC29213, and methicillin resistant S. aureus USA 300, methicillin resistant S. epidermidis ATCC 51625, a biofilm producing methicillin resistant S. epidermidis ET-024[44], P. aeruginosa Pa01 (H103), and E. coli ATCC 25922. Bacteria, grown on agar plates for 18 h at 37 °C, were diluted to ∼1 × 10^8 CFU/mL in Mueller‐Hinton Broth II (MHB II). Twofold serial dilutions of peptoids in MHB II were inoculated with bacteria to achieve a final concentration of 5 × 10^5 CFU/mL in polypropylene 96 U‐well microtiter plates (Corning 3,897; ThermoFisher Scientific, Roskilde), followed by incubation at 37 °C in ambient air for 18 h. The MIC values were determined as the lowest concentration showing no visible bacterial growth. Experiments were performed twice (in technical triplicates) on 2 different days.

The subject of another assay is S. aureus ATCC 25923. The assay is classed as cell-based, Staphylococcus aureus. Particulars: ATCC 25923, 18 h. The protocol: as §1
The subject of assay [1] is Methicillin-resistant S. aureus USA 300. The assay is classed as cell-based, Staphylococcus aureus. Particulars: USA 300, 18 h. The method, then:
as §1

For assay [2], the system named is Methicillin-resistant S. epidermidis ATCC 51625. The assay is classed as cell-based, Staphylococcus epidermidis. The following applies: ATCC 51625, 18 h. The protocol: as §1
Assay [3] relates to Methicillin-resistant S. epidermidis ET-024. It counts as cell-based, Staphylococcus epidermidis. Particulars: Methicillin-resistant ET-024, 18 h. The method, then: as §1
Assay [4] concerns P. aeruginosa PA01 (H103). It counts as cell-based, Pseudomonas aeruginosa. Particulars: H103, 18 h. The method, then:
as §1

The subject of the next assay is E. coli ATCC 25922. It counts as cell-based, Escherichia coli. Particulars: ATCC 25922, 18 h. The protocol:
as §1

Molecules are shown by their SMILES. ≈ marks a conversion by molar mass, not a printed value. Non-standard residues stand in square brackets, D forms with d. Residues, ends and D or L forms follow the SMILES beside them. Gly(Nα-4-Cl-benzyl) = O=C(O)CNCc1ccc(Cl)cc1; N(4-Br-benzyl)Gly = O=C(O)CNCc1ccc(Br)cc1; Nspe(4-Br) = C[C@H](NCC(=O)O)c1ccc(Br)cc1; N(4-F-Bzl)Gly = O=C(O)CNCc1ccc(F)cc1; NBzl(4-I)Gly = O=C(O)CNCc1ccc(I)cc1; Nspe = C[C@H](NCC(=O)O)c1ccccc1; Nphe = O=C(O)CNCc1ccccc1; Nlys = NCCCCNCC(=O)O

Consider `NCCCCNCC(=O)N(CC(=O)N(CCCCN)CC(=O)N(CC(=O)N(CCCCN)CC(=O)N(CC(N)=O)Cc1ccc(I)cc1)Cc1ccccc1)Cc1ccc(I)cc1` [Compound 9] (H-[Nlys][NBzl(4-I)Gly][Nlys][Nphe][Nlys][NBzl(4-I)Gly]-NH2), for which the “Minimal inhibitory concentration SA^b” value in the assay on S. aureus ATCC 29213 amounted to 16 µg/mL (≈ 14.6 µM). Moreover, the “Minimal inhibitory concentration SA^a” value in the assay with S. aureus ATCC 25923 amounted to 64 µg/mL (≈ 58.5 µM). For the same compound, in assay [1], the “Minimal inhibitory concentration MRSA^c” value worked out at 16 µg/mL (≈ 14.6 µM). The “Minimal inhibitory concentration MRSE^e” value in assay [2] turned out to be 4 µg/mL (≈ 3.65 µM). For the same compound, the “Minimal inhibitory concentration MRSE^d” value in assay [3] is 16 µg/mL (≈ 14.6 µM). Moreover, in assay [4], the “Minimal inhibitory concentration PA^g” value was determined as 256 µg/mL (≈ 234 µM). The “Minimal inhibitory concentration EC^f” value in the assay with E. coli ATCC 25922 is 256 µg/mL (≈ 234 µM).
On to `NCCCCNCC(=O)N(CC(=O)N(CCCCN)CC(=O)N(CC(=O)N(CCCCN)CC(=O)N(CC(=O)N(CCCCN)CC(=O)N(CC(N)=O)Cc1ccc(F)cc1)Cc1ccc(F)cc1)Cc1ccc(F)cc1)Cc1ccc(F)cc1` [Compound 11] (H-[Nlys][N(4-F-Bzl)Gly][Nlys][N(4-F-Bzl)Gly][Nlys][N(4-F-Bzl)Gly][Nlys][N(4-F-Bzl)Gly]-NH2), for which the “Minimal inhibitory concentration SA^b” value with S. aureus ATCC 29213 is 256 µg/mL (≈ 215 µM). Besides, the “Minimal inhibitory concentration SA^a” value in the assay with S. aureus ATCC 25923 stood at 256 µg/mL (≈ 215 µM). The “Minimal inhibitory concentration MRSA^c” value in assay [1] was determined as 256 µg/mL (≈ 215 µM). Besides, in assay [2], the “Minimal inhibitory concentration MRSE^e” value is 32 µg/mL (≈ 26.9 µM). In addition, the “Minimal inhibitory concentration MRSE^d” value in assay [3] was determined as 64 µg/mL (≈ 53.8 µM). In assay [4], the “Minimal inhibitory concentration PA^g” value was more than 512 µg/mL. For the same compound, in the assay on E. coli ATCC 25922, the “Minimal inhibitory concentration EC^f” value worked out at 128 µg/mL (≈ 108 µM).
For `NCCCCNCC(=O)N(CC(=O)N(CCCCN)CC(=O)N(CC(=O)N(CCCCN)CC(=O)N(CC(=O)N(CCCCN)CC(=O)N(CC(N)=O)Cc1ccc(Cl)cc1)Cc1ccc(Cl)cc1)Cc1ccc(Cl)cc1)Cc1ccc(Cl)cc1` [Compound 12] (H-[Nlys][Gly(Nα-4-Cl-benzyl)][Nlys][Gly(Nα-4-Cl-benzyl)][Nlys][Gly(Nα-4-Cl-benzyl)][Nlys][Gly(Nα-4-Cl-benzyl)]-NH2), the “Minimal inhibitory concentration SA^b” value with S. aureus ATCC 29213 was 4 to 8 µg/mL. For the same compound, the “Minimal inhibitory concentration SA^a” value in the assay with S. aureus ATCC 25923 was 4 µg/mL (≈ 3.18 µM). Moreover, in assay [1], the “Minimal inhibitory concentration MRSA^c” value came to 2 µg/mL (≈ 1.59 µM). Besides, in assay [2], the “Minimal inhibitory concentration MRSE^e” value was found to be 1 µg/mL (≈ 0.796 µM). Moreover, the “Minimal inhibitory concentration MRSE^d” value in assay [3] is 2 µg/mL (≈ 1.59 µM). In addition, in assay [4], the “Minimal inhibitory concentration PA^g” value was more than 512 µg/mL. In addition, the “Minimal inhibitory concentration EC^f” value in the assay on E. coli ATCC 25922 is 64 µg/mL (≈ 50.9 µM).
Regarding `NCCCCNCC(=O)N(CC(=O)N(CCCCN)CC(=O)N(CC(=O)N(CCCCN)CC(=O)N(CC(=O)N(CCCCN)CC(=O)N(CC(N)=O)Cc1ccc(Br)cc1)Cc1ccc(Br)cc1)Cc1ccc(Br)cc1)Cc1ccc(Br)cc1` [Compound 13] (H-[Nlys][N(4-Br-benzyl)Gly][Nlys][N(4-Br-benzyl)Gly][Nlys][N(4-Br-benzyl)Gly][Nlys][N(4-Br-benzyl)Gly]-NH2), the “Minimal inhibitory concentration SA^b” value in the assay with S. aureus ATCC 29213 was found to be 8 µg/mL (≈ 5.58 µM). For the same compound, the “Minimal inhibitory concentration SA^a” value with S. aureus ATCC 25923 came out at 4 µg/mL (≈ 2.79 µM). The “Minimal inhibitory concentration MRSA^c” value in assay [1] was 2 µg/mL (≈ 1.39 µM). The “Minimal inhibitory concentration MRSE^e” value in assay [2] was 4 µg/mL (≈ 2.79 µM). Also, the “Minimal inhibitory concentration MRSE^d” value in assay [3] worked out at 2 µg/mL (≈ 1.39 µM). In addition, the “Minimal inhibitory concentration PA^g” value in assay [4] was more than 512 µg/mL. For the same compound, in the assay on E. coli ATCC 25922, the “Minimal inhibitory concentration EC^f” value was determined as 64 µg/mL (≈ 44.6 µM).
With `C[C@@H](c1ccc(Br)cc1)N(CC(N)=O)C(=O)CN(C(=O)CN(CCCCN)C(=O)CN(C(=O)CN(C(=O)CNCCCCN)[C@@H](C)c1ccccc1)[C@@H](C)c1ccccc1)[C@@H](C)c1ccccc1` [Compound 49] (H-[Nlys][Nspe][Nspe][Nlys][Nspe][Nspe(4-Br)]-NH2), the “MIC SA^a” value in the assay with S. aureus ATCC 25923 was 64 µg/mL (≈ 64.2 µM). For the same compound, the “MIC MRSA^b” value in assay [1] amounted to 32 µg/mL (≈ 32.1 µM). For the same compound, the “MIC MRSE^d” value in assay [2] is 8 µg/mL (≈ 8.02 µM). Besides, the “MIC MRSE^c” value in assay [3] amounted to 16 µg/mL (≈ 16 µM). For the same compound, the “MIC PA^f” value in assay [4] is 64 µg/mL (≈ 64.2 µM). Moreover, the “MIC EC^e” value against E. coli ATCC 25922 is more than 64 µg/mL.
Take `C[C@@H](c1ccccc1)N(CC(N)=O)C(=O)CN(C(=O)CN(CCCCN)C(=O)CN(C(=O)CN(C(=O)CNCCCCN)[C@@H](C)c1ccccc1)[C@@H](C)c1ccccc1)[C@@H](C)c1ccccc1` [Pep1-6mer] (H-[Nlys][Nspe][Nspe][Nlys][Nspe][Nspe]-NH2): the “MIC SA^a” value in the assay on S. aureus ATCC 25923 came out at 256 µg/mL (≈ 279 µM). Moreover, the “MIC MRSA^b” value in assay [1] came to 256 µg/mL (≈ 279 µM). For the same compound, the “MIC MRSE^d” value in assay [2] turned out to be 64 µg/mL (≈ 69.7 µM). Also, the “MIC MRSE^c” value in assay [3] was 64 µg/mL (≈ 69.7 µM). The “MIC PA^f” value in assay [4] came to 256 µg/mL (≈ 279 µM). Moreover, in the assay with E. coli ATCC 25922, the “MIC EC^e” value is reported as 1,024 μg/mL.
